Data: patent publication US6849576B2, “Plant-activating agent” (Kao Corporation, priority 2000, dated 2005)

Experiments:
liverwort callus cells = assay: Reproduction of green cells: liverwort callus cultivation, fresh weight at 10th day; type: cell-based, liverwort (Harchantia polymorpha L.); settings: liverwort callus fresh weight at 10th day (240 hours); relative value, control area = 100; concentrations (ppm) as in Table 7
Experimental: In case of a unicellular organism, an individual of this organism can be used itself as a green cell. […] When chlorella is used, a test substance acting as a plant-activating agent is added to an inorganic salt medium for chlorella (test area), and the number of cells (cells/ml) when cultivation is conducted for a certain period can be compared with the number of cells (cells/ml) in the non-added system cultivated under the same condition (control area), for calculation. Further, cells in the form of callus can also be used. As the callus, a liverwort (Harchantia polymorpha L.) callus may be exemplified. When a callus is used, the test substance acting as a plant-activating agent is added to e.g. a sterilized medium for calluses (test area), and the weight of callus when cultivation is conducted for a certain period can be compared with the weight of callus of the non-added system cultivated under the same condition (control area), for calculation. In any case, the concentration of the test substance in the test area is not limited but suitably from 0.1 to 1000 ppm in terms of effective components.
100 ml of the medium (MSK2 medium) for liverworts were placed into a 500-ml Erlenmeyer flask, and the flask was capped with a silicon cap having its ventilative property and placed into an autoclave (at a high temperature, under a high pressure, and a sterilized oven) to sterilize the medium (for 20 minutes). Herein, the substance acting as the plant-activating agent was added in a concentration shown in Table 7 into a culturing solution in the test area. After sterilization, the temperature of the medium was returned to a normal temperature. 2 ml of liverwort callus cells under a steady state, which had been sub-cultivated previously, were sucked up by a 2-ml Komagome pipette (measuring pipet) and incubated to the sterilized medium. These operations are conducted in a clean bench when sterilized condition is necessary. Cultivation is carried out in a shaking incubator rotating at 110 rpm at 23° C. under continuous illumination (with illuminance of 10 klx.) with carbon dioxide and humidity under natural conditions. Tenth day (after 240 hours) after starting the cultivation, the whole culturing solution in each area was filtrated under suction, and the fresh weight (raw weight) (g) of the callus cell was measured. This was made as the amount in reproduction of green cells, and the improved degree in reproduction of green cells was measured by the above-described formula.

tomato “Momotato” = assay: Tomato pot test, soil treatment: SPAD value, dry weight, leaf-area, ascorbic acid and nitrate ion in the blade part; type: in vivo; settings: for Concentration of ascorbic acid in the blade part / Concentration of nitrate ion in the blade part / Dry weight of plant / Leaf-area: 3rd day after 7th treatment, relative to control area = 100; for SPAD value: soil treated 7 times weekly, about 50 ml per pot, in 3000-fold Otsuka OKF2, 3rd day after 7th treatment, control area 34.3
Experimental: (§1) The SPAD values in the test and control areas grown under the same conditions are measured by Minolta Chlorophyll Meter SPAD 502 (supplied by Minolta Co., Ltd.). This is an apparatus to measure the amount of chlorophyll of plants (leaves) without destruction. Raw leaves are inserted into this apparatus and irradiated with light (stroboscopic emission by a xenon lamp). The transmission light is passed through a filter having 670 nm of the maximum wavelength to be absorbed by chlorophyll and another filter having 750 nm of the non-specific absorption band of a polymer such as protein, the difference in light absorption amounts at both wavelengths is measured by an integrated circuit and converted digitally, and then the value is expressed. The value is indicated in terms of numerical values between zero to 80 (SPAD value). The SPAD value has a high correlation with the chlorophyll content per unit area of a leaf. The following regression formula is satisfied between the value (X) measured by SPAD 502 and the chlorophyll content (Y) (mg/100 cm^2) (Shokubutsu Eiyo Jikken Ho (translated as Method for testing nutrition of plants), 2nd press., pp. 366-367 issued on Apr. 20th, 1991 by Hakuyu Sha K. K.).
(§2) The improved degree of the SPAD value in the present invention is calculated as follows: Improved degree of the SPAD value=(SPAD value in test area)−(SPAD value in control area).
(§3) The measuring time of the SPAD is not limited but only necessitates that the area of a leaf of the plant reaches to an area (about 5 mm×5 mm or more) measurable by a SPAD meter after a treatment with the substance acting as the plant-activating agent. The measurement of the SPAD value is carried out at least 20 times on the same leaf position of a plant treated with the substance acting as the plant-activating agent and of another plant not treated with the substance acting as a plant-activating agent, and the average value thereof is used.
(§4) The increased amount in weight of a plant (b) is calculated from fresh weights or dry weights in the test area and control area in which plants have been grown under the same conditions, like in the above-mentioned [i]. […] The weight of a plant is measured as follows. Each and all plants treated with the substance acting as the plant-activating agent (test area) and not treated with the substance acting as the plant-activating agent (control area) are taken out of a cultivation apparatus (e.g. a pot), soil and contaminations adhering to roots are washed away by running water sufficiently, and respective weights are measured (fresh weight). Each of the plants is dried at 70° C. for 5 days and the weight thereof after the drying is measured (dry weight). Increased amounts in weight of plants are calculated respectively by the following manner. Herein, though any of the fresh weight and dry weight may be calculated, the dry weight is preferably calculated for directly reflecting the net weight of an anabolite (assimilate). Increased amount (%) in weight (fresh weight) of a plant=[(fresh weight in test area−fresh weight in control area)/(fresh weight in control area)]×100 Increased amount (%) in weight (dry weight) of a plant=[(dry weight in test area−dry weight in control area)/(dry weight in control area)]×100
(§5) The improved degree of leaf-area of a plant (c) is calculated from leaf-area of whole plants in the test area and control area in which plants have been grown in the same conditions, like in the above-mentioned [i]. The improved degree is preferably not less than 5%, more preferably not less than 7% and most preferably not less than 9%. In the present invention, the improved degree of leaf-area is measured using an automatic planimeter AAC-400 model (supplied by Hayashi Denko K. K.). This automatic planimeter is a device to detect, by a photo-electric element, the extent of blockage of scanning beam by a sample. According to this device, the minimum unit is 1 mm^2, the maximum display number can be shown up to 99999.99 cm^2. […]

spinach “Esper” = assay: Spinach pot test, soil treatment: SPAD value, dry weight, leaf-area, ascorbic acid and nitrate ion in the blade part; type: in vivo; settings: 3rd day after 5th treatment; for Concentration of ascorbic acid in the blade part / Concentration of nitrate ion in the blade part / Dry weight of plant / Leaf-area: relative to control area = 100; for SPAD value: soil treated 5 times weekly, about 150 ml per pot, in water, control area 43.1
Experimental: as §1, §2, §3, §4, §5

Compound | Improved degree in reproduction of green cells (liverwort callus cells) | Concentration of ascorbic acid in the blade part (tomato “Momotato”) [%] | Concentration of nitrate ion in the blade part (tomato “Momotato”) [%] | Dry weight of plant (tomato “Momotato”) [%] | Leaf-area (tomato “Momotato”) [%] | SPAD value (tomato “Momotato”) [point] | further results
O=C([O-])CCC(=O)[O-].[Na+].[Na+] [Comparative product 5-2, Sodium succinate, reference compound] | 91 | – | – | – | – | – | –
O=C([O-])CN(CCN(CC(=O)[O-])CC(=O)[O-])CC(=O)[O-].[Na+].[Na+].[Na+].[Na+] [Comparative product 5-3, EDTA-4Na, reference compound] | 90 | – | – | – | – | – | –
CCCCCCCCCCCCCCCCCCOCCCCCCCCCCCCCCCCCC [Inventive product 3-9, Distearyl ether] | – | 134 | 79 | 120 | 112 | 38.1 | –
CC(C)C[C@H](N)C(=O)O [Inventive product 4-6, L-leucine] | – | – | – | – | – | – | Concentration of ascorbic acid in the blade part (spinach “Esper”): 113%; Concentration of nitrate ion in the blade part (spinach “Esper”): 85%; Dry weight of plant (spinach “Esper”): 118%; Leaf-area (spinach “Esper”): 110%; SPAD value (spinach “Esper”): 49.0 point
CCCCCCCCCCCCCCCCCCOCCCCCCCCCCCCCCCCCC [Inventive product 4-9, Distearyl ether] | – | – | – | – | – | – | Concentration of ascorbic acid in the blade part (spinach “Esper”): 120%; Concentration of nitrate ion in the blade part (spinach “Esper”): 73%; Dry weight of plant (spinach “Esper”): 116%; Leaf-area (spinach “Esper”): 111%; SPAD value (spinach “Esper”): 49.5 point
CCCCCCCCCCCCCCCCCC(=O)O [Inventive product 5-1, Stearic acid] | 120 | – | – | – | – | – | –
CCCCCCCCCCCCCCCC(=O)O [Inventive product 5-2, Palmitic acid] | 110 | – | – | – | – | – | –
O=S(=O)([O-])CCO.[Na+] [Inventive product 5-3, Sodium isethionate] | 115 | – | – | – | – | – | –
N[C@@H](CCC(=O)[O-])C(=O)[O-].[Na+].[Na+] [Inventive product 5-4, Sodium glutamate] | 105 | – | – | – | – | – | –
CCCCCCCCCCCCCCCCCCO [Inventive product 5-5, Stearyl alcohol] | 140 | – | – | – | – | – | –
CCCCCCCC/C=C\CCCCCCCCNC(=O)CC(O)(CC(=O)O)C(=O)O (stereo not shown) [Inventive product 5-8, Citric acid oleyl amide] | 125 | – | – | – | – | – | –
CCCCCCCCCCCCCCCCCCOCCCCCCCCCCCCCCCCCC [Inventive product 5-9, Distearyl ether] | 135 | – | – | – | – | – | –
CCCCCCCCCCCCCCCCCCOC(=O)CCCCCCCCCCCCCCCCC [Inventive product 5-10, Stearyl sterate] | 125 | – | – | – | – | – | –
CCCCCCCCCCCCCCCCCC(=O)OCC(CO)(CO)CO [Inventive product 5-14, Pentaerythritol monostearate] | 108 | – | – | – | – | – | –
CCCCCCCCCCCCCCCCCCOC(=O)C(O)CO (stereo not shown) [Inventive product 5-17, Glyceric acid stearyl ester] | 108 | – | – | – | – | – | –
Hexaglycerol monostearate [Inventive product 3-16] | – | 119 | 84 | 115 | 108 | 36.8 | –
POE(1) stearyl ether [Inventive product 3-11] | – | 116 | 89 | 114 | 108 | 37 | –
POE(1) stearyl ether [Inventive product 4-11] | – | – | – | – | – | – | Concentration of ascorbic acid in the blade part (spinach “Esper”): 114%; Concentration of nitrate ion in the blade part (spinach “Esper”): 86%; Dry weight of plant (spinach “Esper”): 112%; Leaf-area (spinach “Esper”): 110%; SPAD value (spinach “Esper”): 46.8 point
POE(6) sorbitan monolaurate [Comparative product 3-3] | – | 101 | 99 | 100 | 102 | 35.0 | –
POE(8) oleyl ether [Comparative product 3-2] | – | 102 | 98 | 101 | 103 | 35.0 | –
POE(20) sorbitan monooleate [Comparative product 3-1] | – | 100 | 99 | 103 | 102 | 35.1 | –
POE(20) sorbitan monooleate [Comparative product 4-1, reference compound] | – | – | – | – | – | – | Concentration of ascorbic acid in the blade part (spinach “Esper”): 98%; Concentration of nitrate ion in the blade part (spinach “Esper”): 100%; Dry weight of plant (spinach “Esper”): 101%; Leaf-area (spinach “Esper”): 96%; SPAD value (spinach “Esper”): 43.5 point
POE(20) sorbitan tristearate [Comparative product 3-5] | – | 102 | 98 | 101 | 101 | 35.1 | –
Sodium POE(3) lauryl ether sulfate [Comparative product 3-4] | – | 101 | 100 | 100 | 100 | 34.9 | –
Sodium POE(3) lauryl ether sulfate [Comparative product 4-2, reference compound] | – | – | – | – | – | – | Concentration of ascorbic acid in the blade part (spinach “Esper”): 95%; Concentration of nitrate ion in the blade part (spinach “Esper”): 101%; Dry weight of plant (spinach “Esper”): 98%; Leaf-area (spinach “Esper”): 95%; SPAD value (spinach “Esper”): 42.5 point
Vitamin B12 [Inventive product 4-2] | – | – | – | – | – | – | Concentration of ascorbic acid in the blade part (spinach “Esper”): 111%; Concentration of nitrate ion in the blade part (spinach “Esper”): 85%; Dry weight of plant (spinach “Esper”): 115%; Leaf-area (spinach “Esper”): 108%; SPAD value (spinach “Esper”): 45.9 point
